Assay results taken from PMC11898654, “The Na^+-K^+-ATPase alpha subunit is an entry receptor for white spot syndrome virus” (mBio, 2025).
Counter-ions that a name gives are not always drawn.

Columns and labels:
WSSV [1] = experiment: Endocytic inhibitors injected into shrimp, WSSV entry and replication in hemocytes; type: in vivo, White spot syndrome virus; details: shrimp injected with inhibitor before WSSV; for effect on WSSV entry and replication in shrimp hemocytes: qPCR and flow cytometry, entry 4 h, replication 24 h post-infection
Protocol: Given that viruses enter host cells by exploiting various endocytic pathways, such as clathrin-mediated endocytosis, caveolin-mediated endocytosis, and macropinocytosis ([31]), we went on to examine which of these endocytic pathways is used by WSSV to enter hemocytes. […].
Fig. S5 WSSV entry into shrimp hemocytes through multiple endocytic pathways. (A-F) Identification of endocytic pathways triggered by WSSV. Shrimps were injected with either WSSV or PBS (negative control), and hemocytes were harvested 4 hours post-infection. Hemocytes were incubated with endocytic markers TFN-AF555, CTB-AF555, and DTN-AF568, and uptake rates were analyzed by flow cytometry. Panels (A-C) display representative flow cytometry images for the uptake of TFN-AF555, CTB-AF555, and DTN-AF568, respectively. Quantified uptake rates from three independent experiments are shown in panels (D-F). (G-J) Impact of endocytic inhibitors on WSSV entry. Shrimps were injected with the inhibitors CPZ, GEN, or AMR, and hemocytes were collected 2 hours later for cytotoxicity analysis using the CCK8 kit (G). FITC-labeled or unlabeled WSSV particles were subsequently injected, and hemocytes were harvested 4 hours post-infection for flow cytometry (H) and qPCR (J) to assess WSSV entry. Data from three independent flow cytometry assays are presented in panel (I). (K) Effect of endocytic inhibitors on WSSV replication. Shrimps were injected with WSSV particles following inhibitor treatment, and hemocytes were collected 24 hours post-infection for WSSV copy number quantification via qPCR. Statistical significance was determined using a two-tailed Student’s t-test. * P < 0.05, ** P < 0.01, and *** P < 0.001.

WSSV [2] = experiment: Endocytic inhibitor treatment, WSSV entry in PvATP1A-overexpressing PAC2 cells; type: cell-based, White spot syndrome virus; details: 5 µM inhibitor pre-treatment 30 min, WSSV MOI = 0.1 for 1 h, qPCR, compared with cells treated with CPZ
Protocol: Endocytic inhibitors, chlorpromazine hydrochloride (CPZ, Cat. No. HY-B0407A), genistein (GEN, Cat. No. HY-14596), and amiloride hydrochloride (AMR, Cat. No. HY-B0285A), were purchased from MedChemexpress. Zebrafish PAC2 fibroblast cells were transfected with either the PvATP1A expression plasmid (pEGFP-N1-PvATP1A) or the control plasmid pEGFP-N1. Forty-eight hours post-transfection, cells expressing pEGFP-PvATP1A were pre-treated with 5 µM of each endocytic inhibitor (CPZ, GEN, and AMR) or DMSO (as a control) for 30 min. Following pre-treatment, cells were infected with WSSV (MOI = 0.1) for 1 h. The cells were then washed thrice with PBS, and DNA was extracted for quantification of WSSV copy numbers using qPCR. Cytotoxicity of the endocytic inhibitors on PAC2 cells was assessed using the CCK8 kit (Beyotime, China, Cat. No. C0037), following the manufacturer’s instructions.

WSSV VP28 protein = WSSV VP28 protein (White spot syndrome virus, UniProt Q9ICB7); type: binding; details: SPR, different concentrations of the synthetic peptides
Protocol: SPR experiments were conducted using a Biacore T200 system (GE Healthcare, USA). […] Regeneration of the sensor chip was performed by injecting glycine (pH 3.0) for 30 s at a flow rate of 30 µL/min. The Biacore Insight Evaluation Software application was utilized to analyze the association and dissociation rates using a steady state affinity analysis, and the equilibrium dissociation constant (KD) was determined as the ratio of the dissociation rate to the association rate.

Row | Compound | effect on WSSV entry and replication in shrimp hemocytes (WSSV [1]) | WSSV entry, viral copy numbers in PvATP1A-overexpressing cells (WSSV [2]) | ranking among the endocytic inhibitors for virus entry (WSSV [1]) | change in response units (RU) of the VP28-coated chip (WSSV VP28 protein)
1 | N=C(N)NC(=O)c1nc(Cl)c(N)nc1N [AMR, amiloride hydrochloride] | inhibited WSSV entry and replication | significantly decreased viral copy numbers |  | 
2 | CN(C)CCCN1c2ccccc2Sc2ccc(Cl)cc21 [CPZ, chlorpromazine hydrochloride] | inhibited WSSV entry and replication |  |  | 
3 | O=c1c(-c2ccc(O)cc2)coc2cc(O)cc(O)c12 [GEN, genistein] | inhibited WSSV entry and replication | significantly decreased viral copy numbers | most potent inhibitors of virus entry | 
4 | MVSKGEELFT [pEGFP] |  |  |  | no changes in the response units
